Columns and labels:
Helios = Helios (Homo sapiens, UniProt Q96SW2+Q9UKS7); test: Helios Cellular Degradation Assay (Helios readout); format: cell-based; design: endogenous in cells; host or cells: Jurkat; settings: Jurkat cells, 72 h incubation, Helios-PE antibody staining, flow cytometry; read-out: Helios Jurkat IC50
Method: (§1) Jurkat cells were plated at 80,000 cells/well in 40 μL RPMI+10% FBS in a 384 well cell culture plate prior to using acoustic dispensing technology for adding compound of interest. Cell cultures were incubated for 72 h at 37° C. and 5% C02. In order to facilitate analysis, cell cultures were spun down at 200 rpm for 5 min and the supernatant was discarded. After shaking the plate to dislodge the cell pellet, cells were resuspended in 50 μL of Fixation Buffer (eBioScience FoxP3 buffer set 00-5523-00) for 60 min at room temperature. After centrifuging and discarding the supernatant, cells were permeabilized with 50 μL of Permeabilization buffer (eBioScience FoxP3 buffer set 00-5523-00) for 10 min at room temperature. Following permeabilization, cells were spun down and the supernatant was replaced with 20 μL fluorescently labelled antibodies against Helios, Ikaros and Aiolos or corresponding Isotype controls in 1× Permeabilization buffer (Ikaros-Alexa488 [Biolegend, Cat #368408, 1:50], Helios-PE [CST, Cat #29360, 1:50], Aiolos-Alexa647 [Biolegend, Cat #371106Biolegend, 1:25]) and staining reactions were incubated for 1 h at room temperature; protected from light. Subsequently, 30 μL of 1× Permeabilization buffer was added prior to centrifuging the cells and discarding the supernatant. Stained cells were resuspended in 25 μL of flow cytometry staining buffer (PBS+0.2% BSA) and analyzed using an Intellicyt Ique Plus flow cytometer.

Ikaros = Ikaros (Homo sapiens, UniProt Q13422+Q96SW2); test: Helios Cellular Degradation Assay (Ikaros readout); format: cell-based; design: endogenous in cells; host or cells: Jurkat; settings: Jurkat cells, 72 h incubation, Ikaros-Alexa488 antibody staining, flow cytometry; read-out: Ikaros Jurkat IC50
Method: as §1

Sequence of Ikaros (Q13422 whole entry): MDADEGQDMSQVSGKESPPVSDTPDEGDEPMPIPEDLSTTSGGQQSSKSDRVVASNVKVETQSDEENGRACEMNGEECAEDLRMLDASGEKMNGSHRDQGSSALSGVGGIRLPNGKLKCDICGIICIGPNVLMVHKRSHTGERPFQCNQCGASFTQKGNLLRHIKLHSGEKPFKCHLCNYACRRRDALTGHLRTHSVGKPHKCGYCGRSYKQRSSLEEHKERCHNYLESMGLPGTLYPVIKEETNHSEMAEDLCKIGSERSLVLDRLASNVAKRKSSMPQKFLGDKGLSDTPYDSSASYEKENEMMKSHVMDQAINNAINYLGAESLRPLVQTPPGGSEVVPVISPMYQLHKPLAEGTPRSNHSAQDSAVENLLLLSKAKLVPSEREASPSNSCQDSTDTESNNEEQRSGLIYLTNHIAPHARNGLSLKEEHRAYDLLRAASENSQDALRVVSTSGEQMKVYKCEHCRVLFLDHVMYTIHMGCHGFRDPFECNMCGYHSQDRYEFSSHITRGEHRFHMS
Sequence of Ikaros (Q96SW2 whole entry): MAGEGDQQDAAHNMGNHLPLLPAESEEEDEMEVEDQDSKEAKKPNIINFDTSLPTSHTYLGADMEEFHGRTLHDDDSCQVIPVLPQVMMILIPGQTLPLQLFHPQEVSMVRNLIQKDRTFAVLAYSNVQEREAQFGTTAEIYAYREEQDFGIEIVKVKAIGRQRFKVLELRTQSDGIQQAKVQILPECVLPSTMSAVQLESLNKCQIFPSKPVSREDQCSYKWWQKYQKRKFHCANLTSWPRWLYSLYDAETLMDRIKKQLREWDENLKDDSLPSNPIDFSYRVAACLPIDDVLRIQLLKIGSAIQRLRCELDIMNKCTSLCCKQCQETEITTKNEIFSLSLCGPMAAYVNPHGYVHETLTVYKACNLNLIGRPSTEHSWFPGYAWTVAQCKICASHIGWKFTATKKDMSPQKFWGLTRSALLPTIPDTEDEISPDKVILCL
Sequence of Ikaros (Q16531 whole entry partner): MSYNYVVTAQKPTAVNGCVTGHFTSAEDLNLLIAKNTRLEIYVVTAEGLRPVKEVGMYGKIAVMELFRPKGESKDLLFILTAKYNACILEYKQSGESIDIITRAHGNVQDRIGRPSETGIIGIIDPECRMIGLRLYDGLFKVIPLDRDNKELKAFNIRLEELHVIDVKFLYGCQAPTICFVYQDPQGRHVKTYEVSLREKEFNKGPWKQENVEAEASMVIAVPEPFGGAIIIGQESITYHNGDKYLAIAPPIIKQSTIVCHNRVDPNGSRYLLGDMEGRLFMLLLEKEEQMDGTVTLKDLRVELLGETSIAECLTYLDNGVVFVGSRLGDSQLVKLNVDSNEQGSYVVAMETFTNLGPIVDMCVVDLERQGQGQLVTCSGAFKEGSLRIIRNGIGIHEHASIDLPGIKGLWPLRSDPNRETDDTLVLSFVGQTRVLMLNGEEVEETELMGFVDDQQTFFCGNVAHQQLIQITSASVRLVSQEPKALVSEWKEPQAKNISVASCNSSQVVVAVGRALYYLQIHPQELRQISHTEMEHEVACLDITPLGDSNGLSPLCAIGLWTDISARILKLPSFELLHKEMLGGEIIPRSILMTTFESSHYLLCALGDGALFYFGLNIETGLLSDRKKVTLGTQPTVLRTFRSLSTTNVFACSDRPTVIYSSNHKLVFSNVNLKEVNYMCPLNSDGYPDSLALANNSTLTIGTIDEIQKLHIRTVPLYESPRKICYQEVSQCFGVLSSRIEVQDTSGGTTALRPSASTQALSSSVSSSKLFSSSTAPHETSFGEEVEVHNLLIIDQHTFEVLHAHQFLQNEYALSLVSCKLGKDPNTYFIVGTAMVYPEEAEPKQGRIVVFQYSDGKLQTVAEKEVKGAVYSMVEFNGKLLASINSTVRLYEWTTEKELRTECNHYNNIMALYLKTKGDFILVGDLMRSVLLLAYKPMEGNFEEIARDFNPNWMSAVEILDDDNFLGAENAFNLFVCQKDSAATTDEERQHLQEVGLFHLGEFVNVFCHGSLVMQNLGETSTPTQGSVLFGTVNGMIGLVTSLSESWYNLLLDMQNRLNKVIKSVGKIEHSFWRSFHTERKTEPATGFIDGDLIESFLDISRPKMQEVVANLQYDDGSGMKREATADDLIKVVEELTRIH
Sequence of Helios (Q9UKS7 whole entry): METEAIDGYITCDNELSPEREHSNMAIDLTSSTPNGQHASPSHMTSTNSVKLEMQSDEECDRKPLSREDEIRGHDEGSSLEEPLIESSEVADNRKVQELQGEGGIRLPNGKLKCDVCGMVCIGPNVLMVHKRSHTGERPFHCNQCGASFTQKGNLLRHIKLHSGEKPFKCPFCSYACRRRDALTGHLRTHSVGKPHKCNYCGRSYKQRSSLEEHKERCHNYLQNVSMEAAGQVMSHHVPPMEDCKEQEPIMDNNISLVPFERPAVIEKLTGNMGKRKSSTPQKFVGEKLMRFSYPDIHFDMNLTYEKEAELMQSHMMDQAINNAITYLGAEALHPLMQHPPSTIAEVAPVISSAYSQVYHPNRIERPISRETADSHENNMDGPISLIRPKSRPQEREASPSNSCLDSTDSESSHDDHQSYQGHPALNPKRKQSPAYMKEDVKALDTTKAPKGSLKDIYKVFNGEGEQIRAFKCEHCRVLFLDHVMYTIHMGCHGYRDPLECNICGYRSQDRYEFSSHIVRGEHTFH
Sequence of Helios (Q96SW2 whole entry): as the sequence (Q96SW2 whole entry) above
Sequence of Helios (Q16531 whole entry partner): as the sequence (Q16531 whole entry partner) above

Row | SMILES | DC50 (Helios) [µM] | DC50 (Ikaros) [µM]
1 | O=C1CCC(N2Cc3cc(-c4cnc5cc(F)ccc5n4)ccc3C2=O)C(=O)N1 (stereo not drawn) [Example 26, 3-[5-(6-fluoroquinoxalin-2-yl)-1-oxo-2,3-dihydro-1H-isoindol-2-yl]piperidine-2,6-dione] | 0.098 | > 20
2 | CCOC(=O)c1nc2ccccc2nc1-c1ccc2c(c1)CN(C1CCC(=O)NC1=O)C2=O (stereo not drawn) [Example 30, ethyl 3-[2-(2,6-dioxopiperidin-3-yl)-1-oxo-2,3-dihydro-1H-isoindol-5-yl]quinoxaline-2-carboxylate] | > 20 | > 20
3 | COC(=O)c1ccc2nc(-c3ccc4c(c3)CN(C3CCC(=O)NC3=O)C4=O)ccc2c1 (stereo not drawn) [Example 31, methyl 2-[2-(2,6-dioxopiperidin-3-yl)-1-oxo-2,3-dihydro-1H-isoindol-5-yl]quinoline-6-carboxylate] | > 20 | > 20
4 | Cc1cc2ccccc2nc1-c1ccc2c(c1)CN(C1CCC(=O)NC1=O)C2=O (stereo not drawn) [Example 32, 3-[5-(3-methylquinolin-2-yl)-1-oxo-2,3-dihydro-1H-isoindol-2-yl]piperidine-2,6-dione] | 0.48 | > 20
5 | COc1cccc2ccc(-c3ccc4c(c3)CN(C3CCC(=O)NC3=O)C4=O)nc12 (stereo not drawn) [Example 33, 3-[5-(8-methoxyquinolin-2-yl)-1-oxo-2,3-dihydro-1H-isoindol-2-yl]piperidine-2,6-dione] | 0.12 | > 20
6 | O=C1CCC(N2Cc3cc(-c4nc5ccccc5cc4Cl)ccc3C2=O)C(=O)N1 (stereo not drawn) [Example 36, 3-[5-(3-chloroquinolin-2-yl)-1-oxo-2,3-dihydro-1H-isoindol-2-yl]piperidine-2,6-dione] | 0.11 | > 20
7 | O=C1CCC(N2Cc3cc(-c4cc(O)c5ccccc5n4)ccc3C2=O)C(=O)N1 (stereo not drawn) [Example 37, 3-[5-(4-hydroxyquinolin-2-yl)-1-oxo-2,3-dihydro-1H-isoindol-2-yl]piperidine-2,6-dione] | 2.4 | > 20
8 | COC(=O)c1ccc2cnc(-c3ccc4c(c3)CN(C3CCC(=O)NC3=O)C4=O)nc2c1 (stereo not drawn) [Example 41, methyl 2-[2-(2,6-dioxopiperidin-3-yl)-1-oxo-2,3-dihydro-1H-isoindol-5-yl]quinazoline-7-carboxylate] | > 20 | > 20
9 | C[Si](C)(C)CCn1nnc2c(-c3ccc4c(c3)CN(C3CCC(=O)NC3=O)C4=O)nc(N)nc21 (stereo not drawn) [Example 42, 3-(5-{5-amino-3-[2-(trimethylsilyl)ethyl]-3H-[1,2,3]triazolo[4,5-d]pyrimidin-7-yl}-1-oxo-2,3-dihydro-1H-isoindol-2-yl)piperidine-2,6-dione] | 0.11 | 3.6
10 | Nc1nc(-c2ccc3c(c2)CN(C2CCC(=O)NC2=O)C3=O)c2nc[nH]c2n1 (stereo not drawn) [Example 43, 3-[5-(2-amino-9H-purin-6-yl)-1-oxo-2,3-dihydro-1H-isoindol-2-yl]piperidine-2,6-dione] | > 20 | > 20
11 | Nc1nc(-c2ccc3c(c2)CN(C2CCC(=O)NC2=O)C3=O)nc2nc[nH]c12 (stereo not drawn) [Example 44, 3-[5-(6-amino-7H-purin-2-yl)-1-oxo-2,3-dihydro-1H-isoindol-2-yl]piperidine-2,6-dione] | 0.098 | > 20
12 | CCn1ncc2c(-c3ccc4c(c3)CN(C3CCC(=O)NC3=O)C4=O)nc(N)nc21 (stereo not drawn) [Example 45, 3-(5-{6-amino-1-ethyl-1H-pyrazolo[3,4-d]pyrimidin-4-yl}-1-oxo-2,3-dihydro-1H-isoindol-2-yl)piperidine-2,6-dione] | 0.43 | > 20
13 | Nc1nc(-c2ccc3c(c2)CN(C2CCC(=O)NC2=O)C3=O)cc2[nH]ccc(=O)c12 (stereo not drawn) [Example 47, 3-[5-(5-Amino-4-oxo-1,4-dihydro-1,6-naphthyridin-7-yl)-1-oxo-2,3-dihydro-1H-isoindol-2-yl]piperidine-2,6-dione] | 0.22 | > 20
14 | CC(=O)N(C)c1nc(-c2ccc3c(c2)CN(C2CCC(=O)NC2=O)C3=O)cc2ccccc12 (stereo not drawn) [Example 52, N-{3-[2-(2,6-Dioxopiperidin-3-yl)-1-oxo-2,3-dihydro-1H-isoindol-5-yl]isoquinolin-1-yl}-N-methylacetamide] | 0.21 | > 20
15 | CC(=O)N1CCN(c2nc(-c3ccc4c(c3)CN(C3CCC(=O)NC3=O)C4=O)nc3ncccc23)CC1 (stereo not drawn) [Example 55, 3-(5-(4-(4-acetylpiperazin-1-yl)pyrido[2,3-d]pyrimidin-2-yl)-1-oxoisoindolin-2-yl)piperidine-2,6-dione] | 1 | 8.1

These reach a lower DC50 (Helios). Values come first.

Row | DC50 (Helios) [µM] | DC50 (Ikaros) [µM] | SMILES
16 | 0.09 | > 20 | CC(=O)Nc1nc(-c2ccc3c(c2)CN(C2CCC(=O)NC2=O)C3=O)cc2ccccc12 (stereo not drawn) [Example 48, N-{3-[2-(2,6-Dioxopiperidin-3-yl)-1-oxo-2,3-dihydro-1H-isoindol-5-yl]isoquinolin-1-yl}acetamide]
17 | 0.085 | > 20 | Nc1cc2cccnc2c(-c2ccc3c(c2)CN(C2CCC(=O)NC2=O)C3=O)n1 (stereo not drawn) [Example 53, 3-[5-(6-Amino-1,7-naphthyridin-8-yl)-1-oxo-2,3-dihydro-1H-isoindol-2-yl]piperidine-2,6-dione]
18 | 0.07 | > 20 | O=C1CCC(N2Cc3cc(-c4ccc5cccc(Cl)c5n4)ccc3C2=O)C(=O)N1 (stereo not drawn) [Example 34, 3-[5-(8-chloroquinolin-2-yl)-1-oxo-2,3-dihydro-1H-isoindol-2-yl]piperidine-2,6-dione]
19 | 0.057 | > 20 | O=C1CCC(N2Cc3cc(-c4ccc5ccc(Cl)cc5n4)ccc3C2=O)C(=O)N1 (stereo not drawn) [Example 28, 3-[5-(7-chloroquinolin-2-yl)-1-oxo-2,3-dihydro-1H-isoindol-2-yl]piperidine-2,6-dione]
20 | 0.053 | > 20 | O=C1CCC(N2Cc3cc(-c4ncc5cc(F)ccc5n4)ccc3C2=O)C(=O)N1 (stereo not drawn) [Example 35, 3-[5-(6-fluoroquinazolin-2-yl)-1-oxo-2,3-dihydro-1H-isoindol-2-yl]piperidine-2,6-dione]
21 | 0.048 | 8.4 | Nc1cc2ccccc2c(-c2ccc3c(c2)CN(C2CCC(=O)NC2=O)C3=O)n1 (stereo not drawn) [Example 25, 3-[5-(3-aminoisoquinolin-1-yl)-1-oxo-2,3-dihydro-1H-isoindol-2-yl]piperidine-2,6-dione]
22 | 0.04 | 5 | COc1cccc2c(-c3ccc4c(c3)CN(C3CCC(=O)NC3=O)C4=O)nc(N)cc12 (stereo not drawn) [Example 54, 3-[5-(3-Amino-5-methoxyisoquinolin-1-yl)-1-oxo-2,3-dihydro-1H-isoindol-2-yl]piperidine-2,6-dione]
23 | 0.037 | > 20 | CN(C)c1nc(-c2ccc3c(c2)CN(C2CCC(=O)NC2=O)C3=O)cc2ccccc12 (stereo not drawn) [Example 49, 3-{5-[1-(Dimethylamino)isoquinolin-3-yl]-1-oxo-2,3-dihydro-1H-isoindol-2-yl}piperidine-2,6-dione]
24 | 0.026 | > 20 | CNc1nc(-c2ccc3c(c2)CN(C2CCC(=O)NC2=O)C3=O)cc2ncccc12 (stereo not drawn) [Example 51, 3-{5-[5-(Methylamino)-1,6-naphthyridin-7-yl]-1-oxo-2,3-dihydro-1H-isoindol-2-yl}piperidine-2,6-dione]
25 | 0.025 | > 20 | O=C1CCC(N2Cc3cc(-c4ccc5cc(Cl)ccc5n4)ccc3C2=O)C(=O)N1 (stereo not drawn) [Example 27, 3-[5-(6-chloroquinolin-2-yl)-1-oxo-2,3-dihydro-1H-isoindol-2-yl]piperidine-2,6-dione]
26 | 0.025 | > 20 | COc1ccc2nc(-c3ccc4c(c3)CN(C3CCC(=O)NC3=O)C4=O)ccc2c1 (stereo not drawn) [Example 29, 3-[5-(6-methoxyquinolin-2-yl)-1-oxo-2,3-dihydro-1H-isoindol-2-yl]piperidine-2,6-dione]
27 | 0.025 | > 20 | Cc1ccc2nc(-c3ccc4c(c3)CN(C3CCC(=O)NC3=O)C4=O)ccc2c1 (stereo not drawn) [Example 39, 3-[5-(6-methylquinolin-2-yl)-1-oxo-2,3-dihydro-1H-isoindol-2-yl]piperidine-2,6-dione]
28 | 0.022 | > 20 | O=C1CCC(N2Cc3cc(-c4ccc5cc(F)ccc5n4)ccc3C2=O)C(=O)N1 (stereo not drawn) [Example 38, 3-[5-(6-fluoroquinolin-2-yl)-1-oxo-2,3-dihydro-1H-isoindol-2-yl]piperidine-2,6-dione]
29 | 0.019 | > 20 | O=C1CCC(N2Cc3cc(-c4ccc5cc(O)ccc5n4)ccc3C2=O)C(=O)N1 (stereo not drawn) [Example 40, 3-[5-(6-hydroxyquinolin-2-yl)-1-oxo-2,3-dihydro-1H-isoindol-2-yl]piperidine-2,6-dione]
30 | 0.011 | > 20 | CNc1nc(-c2ccc3c(c2)CN(C2CCC(=O)NC2=O)C3=O)cc2ccccc12 (stereo not drawn) [Example 50, 3-{5-[1-(Methylamino)isoquinolin-3-yl]-1-oxo-2,3-dihydro-1H-isoindol-2-yl}piperidine-2,6-dione]

From patent publication US12570671B2 (BRISTOL-MYERS SQUIBB COMPANY, priority 2020, dated 2026)
